Measured values from patent publication US10266560B2, “Bile acid analogs as FXR/TGR5 agonists and methods of use thereof” (Enanta Pharmaceuticals, Inc., priority 2014, dated 2019).
Like-named read-outs stand apart in the source and are kept apart here.

Target: Human FXR (NR1H4) (Homo sapiens (Human), UniProt Q96RI1)
Test: Human FXR (NR1H4) Assay (Gal4 promoter driven luciferase reporter transactivation in CHO cells)
Assay type: cell-based
Description: Assays Human FXR (NR1H4) Assay
Determination of a ligand mediated Gal4 promoter driven transactivation to quantify ligand binding mediated activation of FXR. FXR Reporter Assay kit purchased from Indigo Bioscience (Catalogue number: IB00601) to determine the potency and efficacy of compound developed by Enanta that can induce FXR activation. The principle application of this reporter assay system is to quantify functional activity of human FXR. The assay utilizes non-human mammalian cells, CHO (Chinese hamster ovary) cells engineered to express human NR1H4 protein (referred to as FXR). Reporter cells also incorporate the cDNA encoding beetle luciferase which catalyzes the substrates and yields photon emission. Luminescence intensity of the reaction is quantified using a plate-reading luminometer, Envision. Reporter Cells include the luciferase reporter gene functionally linked to an FXR responsive promoter. Thus, quantifying changes in luciferase expression in the treated reporter cells provides a sensitive surrogate measure of the changes in FXR activity. […] The assay is according to the manufacturer's instructions. In brief, the assay was performed in white, 96 well plates using final volume of 200 ul containing cells with different doses of compounds. Retrieve Reporter Cells from −80° C. storage. Perform a rapid thaw of the frozen cells by transferring a 10 ml volume of 37° C. cell recovery medium into the tube of frozen cells. Recap the tube of Reporter Cells and immediately place it in a 37° C. water bath for 5-10 minutes. Retrieve the tube of Reporter Cell Suspension from the water bath. Sanitize the outside surface of the tube with a 70% alcohol swab, and then transfer it into the cell culture hood. Dispense 100 μl of cell suspension into each well of the 96-well Assay Plate. Transfer the plate into 37° C. incubator, allowing the cells adherent to the bottom of the well. Dilute compounds in Dilution Plate (DP), and administrate to cells at Assay Plate (AP). DMSO content of the samples was kept at 0.2%. Cells were incubated for additional 22 hours before luciferase activities were measured. Thirty minutes before intending to quantify FXR activity, remove Detection Substrate and Detection Buffer from the refrigerator and place them in a low-light area so that they may equilibrate to room temperature. Remove the plate's lid and discard all media contents by ejecting it into an appropriate waste container. Gently tap the inverted plate onto a clean absorbent paper towel to remove residual droplets. Cells will remain tightly adhered to well bottoms. Add 100 μl of luciferase detection reagent to each well of the assay plate. Allow the assay plate to rest at room temperature for at least 5 minutes following the addition of LDR. Set the instrument (Envision) to perform a single 5 second “plate shake” prior to reading the first assay well. Read time may be 0.5 second (500 mSec) per well.

[1] = FXR agonistic potency range; CHO reporter cells expressing human NR1H4, 22 hours incubation; read-out: EC50
[2] = efficacy normalized to chenodeoxycholic acid (CDCA) set as 100%

Chain of Human FXR (NR1H4) (Q96RI1 whole entry, the tested form may be a part): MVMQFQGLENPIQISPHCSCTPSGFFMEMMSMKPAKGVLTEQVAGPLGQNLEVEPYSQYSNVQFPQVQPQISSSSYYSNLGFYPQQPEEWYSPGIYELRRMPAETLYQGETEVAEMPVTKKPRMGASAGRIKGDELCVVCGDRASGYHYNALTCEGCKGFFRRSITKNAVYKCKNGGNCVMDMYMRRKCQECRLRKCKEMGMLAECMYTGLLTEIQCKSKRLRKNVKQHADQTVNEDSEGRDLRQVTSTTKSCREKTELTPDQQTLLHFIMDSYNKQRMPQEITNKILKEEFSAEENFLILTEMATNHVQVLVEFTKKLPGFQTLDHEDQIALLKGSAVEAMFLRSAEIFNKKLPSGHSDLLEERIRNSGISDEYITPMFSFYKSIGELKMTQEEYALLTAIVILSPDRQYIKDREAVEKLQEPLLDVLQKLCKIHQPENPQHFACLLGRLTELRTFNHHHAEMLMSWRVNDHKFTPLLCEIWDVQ

SMILES	Emax (CHO, read-out: Efficacy (%)) [%]	EC50 [1] [nM]	Emax (CHO; read-out: Efficacy (%)) [%]	EC50 (read-out: EC50) [nM]	Efficacy (%) [2] [%]
CC[C@@H]1C2C[C@H](O)CCC2(C)[C@H]2CCC3(C)C([C@H](C)CCC(=O)NS(=O)(=O)c4ccc(Cl)cc4)CC[C@H]3[C@@H]2[C@@H]1O (stereo partly shown) [Example 480]	346	< 100	–	–	–
CC[C@@H]1C2C[C@H](O)CCC2(C)[C@H]2CCC3(C)C([C@H](C)CCC(=O)NS(=O)(=O)c4cccnc4)CC[C@H]3[C@@H]2[C@@H]1O (stereo partly shown) [Example 466]	–	–	258	1000 to 10000	–
CC[C@@H]1C2C[C@H](O)CCC2(C)[C@H]2CCC3(C)C([C@H](C)CCC(=O)NS(=O)(=O)c4cccc5ncccc45)CC[C@H]3[C@@H]2[C@@H]1O (stereo partly shown) [Example 470]	–	–	439	100 to 1000	–
CC[C@H]1[C@@H](O)[C@@H]2[C@H](CC[C@]3(C)[C@@H]([C@H](C)C[C@@H](C)C(=O)NS(=O)(=O)c4ccc(C(C)(C)C)cc4)CC[C@@H]23)[C@@]2(C)CC[C@@H](O)C[C@@H]12 [Example 485]	–	–	185	100 to 1000	–
CC[C@H]1[C@@H](O)[C@@H]2[C@H](CC[C@]3(C)[C@@H]([C@H](C)CCCC(=O)NS(=O)(=O)c4ccc(C(C)(C)C)cc4)CC[C@@H]23)[C@@]2(C)CC[C@@H](O)C[C@@H]12 [Example 491]	182	< 100	–	–	–
CCC1C(O)C2C3CCC(C(C)CCC(=O)NS(=O)(=O)CC)C3(C)CCC2C2(C)CCC(O)CC12 (stereo not shown) [Example 2]	–	100 to 1000	–	–	258
CCC1C(O)C2C3CCC(C(C)CCC(=O)NS(=O)(=O)C(C)C)C3(C)CCC2C2(C)CCC(O)CC12 (stereo not shown) [Example 3]	–	100 to 1000	–	–	289
CC[C@@H]1C2C[C@H](O)CCC2(C)[C@H]2CCC3(C)C([C@H](C)CCC(=O)NS(=O)(=O)c4ccc(C(C)(C)C)cc4)CC[C@H]3[C@@H]2[C@@H]1O (stereo partly shown) [Example 484]	349	< 100	–	–	–
CC[C@@H]1C2C[C@H](O)CCC2(C)[C@H]2CCC3(C)C([C@H](C)CCC(=O)NS(=O)(=O)c4ccc(OC)c(F)c4)CC[C@H]3[C@@H]2[C@@H]1O (stereo partly shown) [Example 476]	593	< 100	–	–	–
CCC1C(O)C2C3CCC(C(C)CCC(=O)NS(=O)(=O)c4ccc(C)cc4)C3(C)CCC2C2(C)CCC(O)CC12 (stereo not shown) [Example 24]	–	< 100	–	–	271
CCCS(=O)(=O)NC(=O)CCC(C)C1CCC2C3C(O)C(CC)C4CC(O)CCC4(C)C3CCC12C (stereo not shown) [Example 6]	–	100 to 1000	–	–	295
CC[C@@H]1C2C[C@H](O)CCC2(C)[C@H]2CCC3(C)C([C@H](C)CCC(=O)NS(=O)(=O)c4ccc(C#N)cc4)CC[C@H]3[C@@H]2[C@@H]1O (stereo partly shown) [Example 461]	–	–	283	100 to 1000	–
CC[C@@H]1C2C[C@H](O)CCC2(C)[C@H]2CCC3(C)C([C@H](C)CCC(=O)NS(=O)(=O)c4cccc5ccccc45)CC[C@H]3[C@@H]2[C@@H]1O (stereo partly shown) [Example 483]	308	< 100	–	–	–
CC[C@H]1[C@@H](O)[C@@H]2[C@H](CC[C@]3(C)[C@@H]([C@H](C)CCC(=O)NS(=O)(=O)c4ccccc4)CC[C@@H]23)[C@@]2(C)CC[C@@H](O)C[C@@H]12 [Example 18]	–	< 100	–	–	329
CC[C@@H]1C2C[C@H](O)CCC2(C)[C@H]2CCC3(C)C([C@H](C)CCC(=O)NS(=O)(=O)c4ccccn4)CC[C@H]3[C@@H]2[C@@H]1O (stereo partly shown) [Example 462]	–	–	297	100 to 1000	–
CC[C@@H]1C2C[C@H](O)CCC2(C)[C@H]2CCC3(C)C([C@H](C)CCC(=O)NS(=O)(=O)c4cccc(C(F)(F)F)c4)CC[C@H]3[C@@H]2[C@@H]1O (stereo partly shown) [Example 460]	291	< 100	–	–	–
CC[C@@H]1C2C[C@H](O)CCC2(C)[C@H]2CCC3(C)C([C@H](C)CCC(=O)NS(=O)(=O)c4ccccc4Cl)CC[C@H]3[C@@H]2[C@@H]1O (stereo partly shown) [Example 451]	–	–	274	100 to 1000	–
CCC1C(O)C2C3CCC(C(C)CCC(=O)NS(=O)(=O)C4CC4)C3(C)CCC2C2(C)CCC(O)CC12 (stereo not shown) [Example 11]	–	100 to 1000	–	–	315
CC[C@@H]1C2C[C@H](O)CCC2(C)[C@H]2CCC3(C)C([C@H](C)CCC(=O)NS(=O)(=O)c4ccc(OC(F)(F)F)cc4)CC[C@H]3[C@@H]2[C@@H]1O (stereo partly shown) [Example 473]	606	< 100	–	–	–

SMILES	Emax (CHO, read-out: Efficacy (%)) [%]	EC50 [1] [nM]	Emax (CHO; read-out: Efficacy (%)) [%]	EC50 (read-out: EC50) [nM]	Efficacy (%) [2] [%]
CC[C@H]1[C@@H](O)[C@@H]2[C@H](CC[C@]3(C)[C@@H]([C@H](C)CCC(=O)NS(C)(=O)=O)CC[C@@H]23)[C@@]2(C)CC[C@@H](O)C[C@@H]12 [Example 1]	–	–	254	100 to 1000	–
CC[C@@H]1C2C[C@H](O)CCC2(C)[C@H]2CCC3(C)C([C@H](C)CCC(=O)NS(=O)(=O)c4cccc(C)c4)CC[C@H]3[C@@H]2[C@@H]1O (stereo partly shown) [Example 457]	382	< 100	–	–	–
CCC1C(O)C2C3CCC(C(C)CCC(=O)NS(=O)(=O)c4ccccc4[N+](=O)[O-])C3(C)CCC2C2(C)CCC(O)CC12 (stereo not shown) [Example 23]	–	100 to 1000	–	–	280
CC[C@@H]1C2C[C@H](O)CCC2(C)[C@H]2CCC3(C)C([C@H](C)CCC(=O)NS(=O)(=O)c4cccc(OC(F)(F)F)c4)CC[C@H]3[C@@H]2[C@@H]1O (stereo partly shown) [Example 471]	467	< 100	–	–	–
CC[C@@H]1C2C[C@H](O)CCC2(C)[C@H]2CCC3(C)C([C@H](C)CCC(=O)NS(=O)(=O)c4cccc(F)c4)CC[C@H]3[C@@H]2[C@@H]1O (stereo partly shown) [Example 456]	415	< 100	–	–	–
CCC1C(O)C2C3CCC(C(C)CCC(=O)NS(=O)(=O)C4(C)CC4)C3(C)CCC2C2(C)CCC(O)CC12 (stereo not shown) [Example 12]	–	100 to 1000	–	–	331
CC[C@@H]1C2C[C@H](O)CCC2(C)[C@H]2CCC3(C)C([C@H](C)CCC(=O)NS(=O)(=O)c4nccs4)CC[C@H]3[C@@H]2[C@@H]1O (stereo partly shown) [Example 474]	–	–	463	1000 to 10000	–
CC[C@@H]1C2C[C@H](O)CCC2(C)[C@H]2CCC3(C)C([C@H](C)CCC(=O)NS(=O)(=O)c4cccc(OC)c4)CC[C@H]3[C@@H]2[C@@H]1O (stereo partly shown) [Example 477]	596	< 100	–	–	–
CCC1C(O)C2C3CCC(C(C)CCC(=O)NS(=O)(=O)c4ccccc4C)C3(C)CCC2C2(C)CCC(O)CC12 (stereo not shown) [Example 20]	–	100 to 1000	–	–	348
CCC1C(O)C2C3CCC(C(C)CCC(=O)NS(=O)(=O)C(F)(F)F)C3(C)CCC2C2(C)CCC(O)CC12 (stereo not shown) [Example 10]	–	1000 to 10000	–	–	244
CC[C@@H]1C2C[C@H](O)CCC2(C)[C@H]2CCC3(C)C([C@H](C)CCC(=O)NS(=O)(=O)c4ccc(OC)c(OC)c4)CC[C@H]3[C@@H]2[C@@H]1O (stereo partly shown) [Example 478]	–	–	589	100 to 1000	–
CC[C@H]1[C@@H](O)[C@@H]2[C@H](CC[C@]3(C)[C@@H]([C@H](C)CCCC(=O)NS(=O)(=O)C4CC4)CC[C@@H]23)[C@@]2(C)CC[C@@H](O)C[C@@H]12 [Example 490]	–	–	223	100 to 1000	–
CCCCS(=O)(=O)NC(=O)CCC(C)C1CCC2C3C(O)C(CC)C4CC(O)CCC4(C)C3CCC12C (stereo not shown) [Example 4]	–	100 to 1000	–	–	376
CC[C@@H]1C2C[C@H](O)CCC2(C)[C@H]2CCC3(C)C([C@H](C)CCC(=O)NS(=O)(=O)c4ccncc4)CC[C@H]3[C@@H]2[C@@H]1O (stereo partly shown) [Example 463]	–	–	251	1000 to 10000	–
CC[C@H]1[C@@H](O)[C@@H]2[C@H](CC[C@]3(C)[C@@H]([C@H](C)C[C@@H](C)C(=O)NS(=O)(=O)C4CC4)CC[C@@H]23)[C@@]2(C)CC[C@@H](O)C[C@@H]12 [Example 486]	–	–	387	100 to 1000	–
CCC1C(O)C2C3CCC(C(C)CCC(=O)NS(=O)(=O)C(C)(C)C)C3(C)CCC2C2(C)CCC(O)CC12 (stereo not shown) [Example 5]	–	< 100	–	–	218
CCC1C(O)C2C3CCC(C(C)CCC(=O)NS(N)(=O)=O)C3(C)CCC2C2(C)CCC(O)CC12 (stereo not shown) [Example 17]	–	1000 to 10000	–	–	349
CC[C@@H]1C2C[C@H](O)CCC2(C)[C@H]2CCC3(C)C([C@H](C)CCC(=O)NS(=O)(=O)c4ccccc4C(F)(F)F)CC[C@H]3[C@@H]2[C@@H]1O (stereo partly shown) [Example 459]	–	–	310	100 to 1000	–
CC[C@@H]1C2C[C@H](O)CCC2(C)[C@H]2CCC3(C)C([C@H](C)CCC(=O)NS(=O)(=O)c4ccc(C)c(F)c4)CC[C@H]3[C@@H]2[C@@H]1O (stereo partly shown) [Example 465]	303	< 100	–	–	–
